In US9550755B2, “Complement pathway modulators and uses thereof” (NOVARTIS AG, priority 2012, dated 2017):

Molecular target: Recombinant human factor D (Homo sapiens (Human), UniProt P00746)
Assay: Human Complement Factor D Assay: Method 1
Format: biochemical
Settings: recombinant human factor D 10 nM; substrate Z-Lys-thiobenzyl; fluorescence readout; read-out: IC50 (μM), Factor D inhibition using Method 1
Description: Human Complement Factor D Assay: Method 1
Recombinant human factor D (expressed in E. coli and purified using standard methods) at 10 nM concentration is incubated with test compound at various concentrations for 1 hour at room temperature in 0.1 M Hepes buffer, pH 7.5, containing 1 mM MgCl2, 1 M NaCl and 0.05% CHAPS. A synthetic substrate Z-Lys-thiobenzyl and 2,4-dinitrobenzenesulfonyl-fluoresceine are added to final concentrations of 200 μM and 25 μM, respectively. The increase in fluorescence is recorded at excitation of 485 nm and emission at 535 nm in a microplate spectrofluorimeter. IC50 values are calculated from percentage of inhibition of complement factor D-activity as a function of test compound concentration.

Recombinant human factor D, sequence (P00746 26-253): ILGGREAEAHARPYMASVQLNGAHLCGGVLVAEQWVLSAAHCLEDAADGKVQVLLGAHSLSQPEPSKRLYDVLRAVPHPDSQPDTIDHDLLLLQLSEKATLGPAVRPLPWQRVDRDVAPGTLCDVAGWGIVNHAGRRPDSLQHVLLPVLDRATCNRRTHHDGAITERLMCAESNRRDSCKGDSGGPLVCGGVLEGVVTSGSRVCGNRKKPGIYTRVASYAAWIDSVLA

IC50 [µM] | Structure (SMILES)
0.083 | CC(=O)c1nn(CC(=O)N2[C@@H]3C[C@@H]3C[C@H]2C(=O)Nc2ccn(CC(F)(F)F)n2)c2cnccc12 [Example 3, (1R,3S,5R)-2-(2-(3-acetyl-1H-pyrazolo[3,4-c]pyridin-1-yl)acetyl)-N-(1-(2,2,2-trifluoroethyl)-1 H-pyrazol-3-yl)-2-azabicyclo[3.1.0] hexane-3-carboxamide]
0.098 | NC(=O)c1nn(CC(=O)N2[C@@H]3C[C@@H]3C[C@H]2C(=O)Nc2ccn(CC(F)(F)F)n2)c2cnccc12 [Example 2, 1-(2-oxo-2-((1R,3S,5R)-3-((1-(2,2,2-trifluoroethyl)-1H-pyrazol-3-yl)carbamoyl)-2-azabicyclo[3.1.0]hexan-2-yl)ethyl)-1H-pyrazolo[3,4-c]pyridine-3-carboxamide]

Further lines, the compound ahead of its results:

Structure (SMILES) | IC50 [µM]
NC(=O)c1nn(CC(=O)N2[C@@H]3C[C@@H]3C[C@H]2C(=O)Nc2ccn(CC(F)(F)F)n2)c2ccccc12 [Example 1, 1-(2-oxo-2-((1R,3S,5R)-3-(1-(2,2,2-trifluoroethyl)-1H-pyrazol-3-ylcarbamoyl)-2-azabicyclo[3.1.0]hexan-2-yl)ethyl)-1H-indazole-3-carboxamide] | 0.064
NC(=O)n1cc(NC(=O)N2[C@@H]3C[C@@H]3C[C@H]2C(=O)Nc2ccn(CC(F)(F)F)n2)c2ccccc21 [Example 5, (1R,3S,5R)—N2-(1-carbamoyl-1H-indol-3-yl)-N3-(1-(2,2,2-trifluoroethyl)-1H-pyrazol-3-yl)-2-azabicyclo[3.1.0]hexane-2,3-dicarboxamide] | 0.032
CC(C)n1ccc(NC(=O)[C@@H]2C[C@H]3C[C@H]3N2C(=O)Cn2nc(C(N)=O)c3ccccc32)n1 [Example 4, 1-(2-((1R,3S,5R)-3-(1-isopropyl-1H-pyrazol-3-ylcarbamoyl)-2-azabicyclo[3.1.0]hexan-2-yl)-2-oxoethyl)-1H-indazole-3-carboxamide] | 0.17
